Reference: patent US11000033B2, “Ketone or oxime compound, and herbicide” (NISSAN CHEMICAL CORPORATION, priority 2014, dated 2021)

Tests used:
Format in all cases: in vivo
Avena fatua = assay: Test Example 4: herbicidal effect by soil treatment (symbol I); conditions: application herbicide amount 320 g/ha
Method in brief: (§1)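 Seeds were sown in sterilized diluvial soil, covered with about 1.5 cm of soil, and the soil surface was sprayed with a water-diluted emulsion of the compound at a predetermined rate. Plants grew in a greenhouse at 25° C. to 30° C.; effects were scored visually 3 weeks after application.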

Chenopodium album [1] = assay: Test Example 5: herbicidal effect by foliage application, plastic box (symbol O); conditions: 320 g/ha, 3 weeks after application
Method in brief: (§2)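 Post-emergence spray; diluvial soil (sterilized), ~1.5 cm seed cover; greenhouse 25–30° C; 14-day-old plants; water-diluted emulsion at predetermined dose; visual score at 3 wk post-treatment.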

soybean [2] = assay: Test Example 5: effect on crop by foliage application, plastic box (symbol d); conditions: 320 g/ha, 3 weeks after application
Method in brief: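 Greenhouse culture at 25° C. to 30° C. followed spot-like sowing into sterilized diluvial soil, with seed covered by roughly 1.5 cm of soil.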

Amaranthus retroflexus [3] = assay: Test Example 4: herbicidal effect by soil treatment (symbol N); conditions: application herbicide amount 320 g/ha
Method in brief: as §1

Chenopodium album [4] = assay: Test Example 4: herbicidal effect by soil treatment (symbol O); conditions: application herbicide amount 320 g/ha
Method in brief: as §1

beet = assay: Test Example 4: effect on crop by soil treatment (symbol f); conditions: application herbicide amount 320 g/ha
Method in brief: (§3)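 Crop seed is sown in spots together with several weed species in a box of sterilized diluvial soil. It is covered by about 1.5 cm of soil and kept in a greenhouse held between 25° C. and 30° C.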

Setaria viridis [5] = assay: Test Example 4: herbicidal effect by soil treatment (symbol G); conditions: application herbicide amount 320 g/ha
Method in brief: as §1

Apera spica-venti = assay: Test Example 4: herbicidal effect by soil treatment (symbol L); conditions: application herbicide amount 320 g/ha
Method in brief: as §1

Abutilon theophrasti = assay: Test Example 5: herbicidal effect by foliage application, plastic box (symbol M); conditions: 320 g/ha, 3 weeks after application
Method in brief: as §2

Setaria viridis [6] = assay: Test Example 5: herbicidal effect by foliage application, plastic box (symbol G); conditions: 320 g/ha, 3 weeks after application
Method in brief: as §2

Lolium multiflorum Lam. = assay: Test Example 4: herbicidal effect by soil treatment (symbol K); conditions: application herbicide amount 320 g/ha
Method in brief: as §1

Amaranthus retroflexus [7] = assay: Test Example 5: herbicidal effect by foliage application, plastic box (symbol N); conditions: 320 g/ha, 3 weeks after application
Method in brief: as §2

Monochoria vaginalis = assay: Test Example 1: herbicidal activity, application before weed generation in submerged conditions (symbol C); conditions: application herbicide amount 320 g/ha
Method in brief: (§4)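 Weed control was rated three weeks after treatment on a 0–5 scale, from 5% or lower up to 90% or more. Pre-emergence water-surface application of diluted emulsion at a predetermined rate was made on the day of sowing, in flooded (4 cm water) pots containing rice seedlings, kept at 25–30 °C under glass.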

[8] = tested on: Echinochloa crus-galli var. crus-galli; assay: Test Example 5: herbicidal effect by foliage application, plastic box (symbol H); conditions: 320 g/ha, 3 weeks after application
Method in brief: as §2

wheat = assay: Test Example 4: effect on crop by soil treatment (symbol e); conditions: application herbicide amount 320 g/ha
Method in brief: as §3

[9] = tested on: Echinochloa crus-galli var. crus-galli; assay: Test Example 3: herbicidal effect by foliage application, Wagner pot (symbol H); conditions: application herbicide amount 320 g/ha
Method in brief: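 Scoring took place 3 weeks after application, using fixed criteria. Plants had been raised from seed for 14 days at 25 to 30 °C in submerged alluvial soil before a diluted emulsion of the test compound was sprayed uniformly on the leaves.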

soybean [10] = assay: Test Example 4: effect on crop by soil treatment (symbol d); conditions: application herbicide amount 320 g/ha
Method in brief: as §3

Scirpus juncoides = assay: Test Example 1: herbicidal activity, application before weed generation in submerged conditions (symbol B); conditions: application herbicide amount 320 g/ha
Method in brief: as §4

| Compound | I: Avena fatua, herbicidal effect grade (Avena fatua) | O: Chenopodium album, herbicidal effect grade (Chenopodium album [1]) | d: soybean, effect on crop grade (soybean [2]) | N: Amaranthus retroflexus, herbicidal effect grade (Amaranthus retroflexus [3]) | O: Chenopodium album, herbicidal effect grade (Chenopodium album [4]) | f: beet, effect on crop grade (beet) | G: Setaria viridis, herbicidal effect grade (Setaria viridis [5]) | L: Apera spica-venti, herbicidal effect grade (Apera spica-venti) | M: Abutilon theophrasti, herbicidal effect grade (Abutilon theophrasti) | G: Setaria viridis, herbicidal effect grade (Setaria viridis [6]) | K: Lolium multiflorum Lam., herbicidal effect grade (Lolium multiflorum Lam.) | N: Amaranthus retroflexus, herbicidal effect grade (Amaranthus retroflexus [7]) | Herbicidal effect grade, C: Monochoria vaginalis (Monochoria vaginalis) | H: Echinochloa crus-galli var. crus-galli, herbicidal effect grade [8] | e: wheat, effect on crop grade (wheat) | herbicidal effect on H (Echinochloa crus-galli var. crus-galli), grade 0-5 [9] | d: soybean, effect on crop grade (soybean [10]) | Herbicidal effect grade, B: Scirpus juncoides (Scirpus juncoides) |
| --- | --- | --- | --- | --- | --- | --- | --- | --- | --- | --- | --- | --- | --- | --- | --- | --- | --- | --- |
| CON=C(C)CC1CC(O)=C(c2c(C)cc(-c3ccc(C(F)(F)F)cc3)cc2C)C1=O (mixture of isomers) [6-016] | 0 (Herbicidal ratio of 5% or lower (almost no effect)) | 3 (Herbicidal ratio of 40% or higher and lower than 70%) | 0 (Herbicidal ratio of 5% or lower (almost no effect)) | 2 (Herbicidal ratio of 20% or higher and lower than 40%) | 0 (Herbicidal ratio of 5% or lower (almost no effect)) | 0 (Herbicidal ratio of 5% or lower (almost no effect)) | 5 (Herbicidal ratio of 90% or more (almost completely withered)) | 5 (Herbicidal ratio of 90% or more (almost completely withered)) | 0 (Herbicidal ratio of 5% or lower (almost no effect)) | 5 (Herbicidal ratio of 90% or more (almost completely withered)) | 0 (Herbicidal ratio of 5% or lower (almost no effect)) | 0 (Herbicidal ratio of 5% or lower (almost no effect)) | 0 (Herbicidal ratio of 5% or lower (almost no effect)) | 5 (Herbicidal ratio of 90% or more (almost completely withered)) | 0 (Herbicidal ratio of 5% or lower (almost no effect)) | 5 (Herbicidal ratio of 90% or more (almost completely withered)) | 0 (Herbicidal ratio of 5% or lower (almost no effect)) | 0 (Herbicidal ratio of 5% or lower (almost no effect)) |
| CON=CC1CC(O)=C(c2c(C)cc(C)cc2C)C1=O (mixture of isomers) [3-001] | 0 (Herbicidal ratio of 5% or lower (almost no effect)) | 0 (Herbicidal ratio of 5% or lower (almost no effect)) | 0 (Herbicidal ratio of 5% or lower (almost no effect)) | 0 (Herbicidal ratio of 5% or lower (almost no effect)) | 0 (Herbicidal ratio of 5% or lower (almost no effect)) | 0 (Herbicidal ratio of 5% or lower (almost no effect)) | 0 (Herbicidal ratio of 5% or lower (almost no effect)) | 5 (Herbicidal ratio of 90% or more (almost completely withered)) | 0 (Herbicidal ratio of 5% or lower (almost no effect)) | 3 (Herbicidal ratio of 40% or higher and lower than 70%) | 4 (Herbicidal ratio of 70% or higher and lower than 90%) | 0 (Herbicidal ratio of 5% or lower (almost no effect)) | 0 (Herbicidal ratio of 5% or lower (almost no effect)) | 4 (Herbicidal ratio of 70% or higher and lower than 90%) | 0 (Herbicidal ratio of 5% or lower (almost no effect)) | 3 (Herbicidal ratio of 40% or higher and lower than 70%) | 0 (Herbicidal ratio of 5% or lower (almost no effect)) | 0 (Herbicidal ratio of 5% or lower (almost no effect)) |
| CCC(C)C(=O)CC1CC(O)=C(c2c(C)cc(C)cc2C)C1=O (stereo not drawn) [2-024] | 0 (Herbicidal ratio of 5% or lower (almost no effect)) | 0 (Herbicidal ratio of 5% or lower (almost no effect)) | 0 (Herbicidal ratio of 5% or lower (almost no effect)) | 0 (Herbicidal ratio of 5% or lower (almost no effect)) | 0 (Herbicidal ratio of 5% or lower (almost no effect)) | 0 (Herbicidal ratio of 5% or lower (almost no effect)) | 5 (Herbicidal ratio of 90% or more (almost completely withered)) | 0 (Herbicidal ratio of 5% or lower (almost no effect)) | 0 (Herbicidal ratio of 5% or lower (almost no effect)) | 5 (Herbicidal ratio of 90% or more (almost completely withered)) | 0 (Herbicidal ratio of 5% or lower (almost no effect)) | 0 (Herbicidal ratio of 5% or lower (almost no effect)) | 0 (Herbicidal ratio of 5% or lower (almost no effect)) | 5 (Herbicidal ratio of 90% or more (almost completely withered)) | 0 (Herbicidal ratio of 5% or lower (almost no effect)) | 5 (Herbicidal ratio of 90% or more (almost completely withered)) | 0 (Herbicidal ratio of 5% or lower (almost no effect)) | 0 (Herbicidal ratio of 5% or lower (almost no effect)) |
| CON=C(C)CC1CC(O)=C(c2c(C)cc(-c3ccc(C)cc3)cc2C)C1=O (mixture of isomers) [6-018] | 0 (Herbicidal ratio of 5% or lower (almost no effect)) | 3 (Herbicidal ratio of 40% or higher and lower than 70%) | 3 (Herbicidal ratio of 40% or higher and lower than 70%) | 0 (Herbicidal ratio of 5% or lower (almost no effect)) | 0 (Herbicidal ratio of 5% or lower (almost no effect)) | 0 (Herbicidal ratio of 5% or lower (almost no effect)) | 5 (Herbicidal ratio of 90% or more (almost completely withered)) | 5 (Herbicidal ratio of 90% or more (almost completely withered)) | 0 (Herbicidal ratio of 5% or lower (almost no effect)) | 5 (Herbicidal ratio of 90% or more (almost completely withered)) | 5 (Herbicidal ratio of 90% or more (almost completely withered)) | 0 (Herbicidal ratio of 5% or lower (almost no effect)) | 4 (Herbicidal ratio of 70% or higher and lower than 90%) | 5 (Herbicidal ratio of 90% or more (almost completely withered)) | 0 (Herbicidal ratio of 5% or lower (almost no effect)) | 5 (Herbicidal ratio of 90% or more (almost completely withered)) | 0 (Herbicidal ratio of 5% or lower (almost no effect)) | 5 (Herbicidal ratio of 90% or more (almost completely withered)) |
